Experimental data published in patent publication US20090176873A1, “NOVEL USE OF ORGANIC COMPOUNDS” (DSM IP ASSETS B.V., priority 2005, published 2009).
Like-named read-outs stand apart in the source and are kept apart here.

Experiments:
PGE2 production = experiment: Inhibition of PGE2 formation in LPS-stimulated RAW 264.7 macrophages (EIA); type: cell-based, murine; details: Mus musculus, read-out: PGE2 Production by RAW Cells IC50
Protocol: (§1) The anti-inflammatory effects of the compounds were evaluated in activated macrophages by determining the inhibition of the synthesis of nitric oxide and/or PGE2. In order to induce an in vitro “inflammatory response”, murine macrophages RAW264.7 were stimulated with lipopolysaccharide (LPS) without or with graded amounts of the test substances. Murine macrophages RAW 264.7 cells respond to LPS-stimulation by the release of substantial amounts of Prostaglandin E2 (PGE2) and nitric oxide (NO), which is impaired by anti-inflammatory compounds. Prostaglandins PGE2 play a critical role in the inflammation process, while nitric oxide is a hallmark of inflammation in conditions like arthritis. Therefore, we evaluated the effect of the compounds on PGE2 and NO production.
RAW 264.7 cells: were cultured in Dulbecco's Modified eagle Medium (DMEM) supplemented with 10% fetal calf serum (FCS), 50 units/ml penicillin, 50 μg/ml streptomycin, L-glutamine and nonessential amino acids (NEM, Life Technologies, No. 11140). RAW cells were used between passage 10 and 50. For the experiments, cells were seeded into 6-well, 12-well or 96-well plates at 2, 1 and 0.05 mio cells per well, respectively, and used after 1 or 2 days of pre-culture. Cells were starved in complete DMEM medium containing 0.25% FCS 18 hours before the treatment. Cells were stimulated with LPS (1 μg/ml) for 24 hours in phenol-free DMEM containing 0.25% FCS. Substances to be tested were dissolved in DMSO (usually at 10 mM) and added to the culture medium concomitantly with the stimulus. […] After 24 hours nitrite concentrations were measured in culture supernatants by the Griess reaction and secreted PGE2 was determined by Enzyme immunoassay (EIA) in unstimulated and LPS-stimulated RAW264.7 cells. The compounds were simultaneously tested at different concentrations to obtain a dose response curve. […] The effects of compounds of the formula (I) on PGE2 production was also measured in the murine macrophage cell line RAW 264.7 (Table 1).

[1] = test system: adhesion of U937 to human umbilical cord endothelial cells (HUVEC); experiment: Adhesion of U937 monocytes to TNF-α stimulated HUVEC; type: cell-based; details: 20 hours stimulation
Protocol: (§2) Artherosclerotic lesions can develop as a consequence of endothelial dysfunction. This is reflected by altered i.e. increased adhesion of monocytes to endothelial layers. We evaluated the effect of ligustilide on adhesion of U937, a monocyte cell line, to human umbilical cord endothelial cells (HUVEC). HUVEC were stimulated with TNF-α in the absence or presence of ligustilide (25 or 50 μmol/L) for 20 hours and the adhesion of U937 was determined according to Carluccio et al. (Arterioscler Thromb Vasc Biol 2003; 23, 622-629). […] Adhesion of monocytes to endothelial layers is mediated by the expression of intercellular adhesion molecule 1 (ICAM-1). Therefore, we further analyzed the effects of ligustilide on the level of ICAM-1 mRNA in HUVEC by quantitative RT-PCR.

[2] = test system: nitric oxide (NO) production; experiment: Inhibition of nitric oxide production in LPS-stimulated RAW264.7 macrophages (Griess reaction); type: cell-based, murine; details: Mus musculus; RAW264.7, LPS 1 μg/ml, 24 hours
Protocol: as §1
RAW 264.7 cells: were cultured in Dulbecco's Modified eagle Medium (DMEM) supplemented with 10% fetal calf serum (FCS), 50 units/ml penicillin, 50 μg/ml streptomycin, L-glutamine and nonessential amino acids (NEM, Life Technologies, No. 11140). […] After 24 hours nitrite concentrations were measured in culture supernatants by the Griess reaction and secreted PGE2 was determined by Enzyme immunoassay (EIA) in unstimulated and LPS-stimulated RAW264.7 cells. […] The effects of compounds of the formula (I) on PGE2 production was also measured in the murine macrophage cell line RAW 264.7 (Table 1).

kaolin-induced arthritis = experiment: Kaolin-induced arthritis in rats, gait score; type: in vivo; details: rat, 100 mg/kg oral; for Gait score: score from 0 to 3, mean of 10; for % improvement of gait score: vs control
Protocol: Twenty male Sprague Dawley rats weighing 103 g to 132 g, were included in this study. They were housed in a temperature (19.5-24.5° C.) and relative humidity (45-65%) controlled room with a 12-h light/dark cycle, with ad libitum access to filtered tap-water and standard pelleted laboratory chow, throughout the study. Upon receipt at animal facilities, they were housed 5 per cage and at least a 5-day acclimatization period were observed before any testing. Animals were individually identified on the tail. Arthritis is induced by injection of a 10% kaolin suspension into the knee joint of the rat right hindpaw. In the vehicle-treated group, injection of kaolin suspension into the knee joint of the rat right hindpaw induced an impairment of the gait, evaluated by an increase of the gait score (score from 0 to 3). Gait of animals is used to measure the spontaneous painful behavior. Ligustilide (100 mg/kg) suspended in 1% methylcellulose (in a volume of 10 ml/kg) or vehicle alone were administered by oral route in a coded and random order, 30 min after kaolin injection. The assessment of score behavior was monitored every hour from 1.5 hours to 5.5 hours following drug dosing. The mean gait score was calculated from individual values at each time. The percentage of inhibition of the mean gait score as compared to the mean value of the control group was calculated 1.5, 2.5, 3.5, 4.5 hours and 5.5 hours after dosing.
The results are expressed for each group as the mean of the gait scores of 10 animals per group.

[3] = test system: carrageenan-induced paw edema; experiment: Carrageenan-induced paw edema in rats; type: in vivo; details: rat, 100 mg/kg oral; for Paw edema volume: mean of 10
Protocol: The anti-inflammatory activity of the compounds was evaluated in vivo in the carrageenan-induced paw edema rat model. This model has long been used to assess the anti-inflammatory properties of agents that inhibit prostaglandins, such as nonsteroidal anti-inflammatory drugs (NSAIDs) The model causes time-dependent edema formation following carrageenan administration into the sub-plantar surface of a rat paw. Twenty male Sprague-Dawley rats weighing 130 to 146 g were randomized in two groups. They were housed in a temperature (19.5-24.5° C.) and relative humidity (45-65%) controlled room with a 12-h light/dark cycle, with ad libitum access to filtered tap-water and standard pelleted laboratory chow throughout the study. They were housed 5 per cage and a 5-6-day acclimatization period was observed before any testing. Animals were individually identified on the tail. Ligustilide (100 mg/kg) suspended in 1% methylcellulose (in a volume of 10 mL/kg) or vehicle alone were administered by the oral route in a coded and random order after an overnight fast. One hour later, inflammation is induced by subplantar injection of a 2% carrageenan suspension into the right paw. The paw volume of each rat was measured in mL at the following time points: 0 h, 1.5 h, 3 h, and 4.5 h after the injection of carrageenan. The paw edema volume of each rat at each time point was expressed as the change from initial value. The anti-inflammatory effect on edema volume in treated-groups was expressed as % inhibition [(mean of vehicle-treated group paw edema volume−mean of the treated group paw edema volume)/mean of vehicle-treated group paw edema volume)×100]. All data of paw edema volume are expressed in mL as Mean of 10 rats in each group.

COX-2 = experiment: Gene expression in LPS-stimulated THP-1 cells, quantitative RT-PCR; type: cell-based, human; details: THP-1, ligustilide 25 μM, LPS 1 μg/ml, 4 hours
Protocol: (§3) THP-1 cells, a human monocyte/histiocyte cell line, were cultured in RPMI 1640 medium supplemented with 10% FCS, 50 units/ml penicillin, […] streptomycin, NEM and 2×10^−5 M β-mercaptoethanol. Cells were treated with 50 nM phorbol myristate acetate for 3 days. Cells were starved overnight in medium containing 0.25% FCS before being treated. Cells were stimulated with LPS (1 μg/ml) for 4 hours in phenol-free RPMI containing 0.25% FCS. Ligustilide (25 μM) was added to the culture medium concomitantly with the stimulus. […] LPS-stimulation induces the expression of a large variety of genes including those of inflammatory pathways. After 4 hours of stimulation we have evaluated the impact of ligustilide on the expression of inflammatory genes using quantitative real-time RT-PCR (reverse transcriptase polymerase chain reaction) technology (Table 2).

IL-8 = experiment: as above; type: cell-based, human; details: THP-1, ligustilide 25 μM, LPS 1 μg/ml, 4 hours
Protocol: as §3

TNF-α = experiment: as above; type: cell-based, human; details: THP-1, ligustilide 25 μM, LPS 1 μg/ml, 4 hours
Protocol: as §3

MIP-3α = experiment: as above; type: cell-based, human; details: THP-1, ligustilide 25 μM, LPS 1 μg/ml, 4 hours
Protocol: as §3

IL-6 = experiment: as above; type: cell-based, human; details: THP-1, ligustilide 25 μM, LPS 1 μg/ml, 4 hours
Protocol: as §3

IL-1α = experiment: as above; type: cell-based, human; details: THP-1, ligustilide 25 μM, LPS 1 μg/ml, 4 hours
Protocol: as §3

MIP-2 = experiment: as above; type: cell-based, human; details: THP-1, ligustilide 25 μM, LPS 1 μg/ml, 4 hours
Protocol: as §3

[4] = test system: intercellular adhesion molecule 1 (ICAM-1) mRNA; experiment: ICAM-1 mRNA level in TNF-α stimulated HUVEC, quantitative RT-PCR; type: cell-based, human; details: 2 hours of stimulation
Protocol: as §2

MMP-9 = experiment: Gene expression in IL-1β activated chondrocytes, RT-PCR; type: cell-based; details: 4 hours, SW1353 or normal human chondrocytes, concentration not given
Protocol: (§4) Articulate tissues i.e. joints contain chondrocytes. Their physiological deterioration leads to the erosion of joint tissue components and thus to e.g. osteoarthritis. We have evaluated the effect of ligustilide on catabolic events in chondrocytes. SW1353 chondrosarcoma cells or normal human chondrocytes (derived from knee) were activated with interleukin-1β in the presence of graded amount of test compounds for 4 hours. RNA was then extracted from these cells and reverse-transcribed. Expression of marker genes for catabolic events like matrix metalloproteinases (MMPs) was determined by quantitative real time polymerase chain reaction (RT-PCR). As shown in Table 5 ligustilide influenced the expression level of several MMPs, which are critically involved in the destruction of extracellular matrix. Ligustilide reduced its expression and thus is supposed to prevent tissue erosion in osteoarthritic diseases.

Collagen 2 = experiment: as above; type: cell-based; details: 4 hours, SW1353 or normal human chondrocytes, concentration not given
Protocol: as §4

MMP-13 = experiment: as above; type: cell-based; details: 4 hours, SW1353 or normal human chondrocytes, concentration not given
Protocol: as §4

MMP-1 = experiment: as above; type: cell-based; details: 4 hours, SW1353 or normal human chondrocytes, concentration not given
Protocol: as §4

Collagen 1 = experiment: as above; type: cell-based; details: 4 hours, SW1353 or normal human chondrocytes, concentration not given
Protocol: as §4

MMP-3 = experiment: as above; type: cell-based; details: 4 hours, SW1353 or normal human chondrocytes, concentration not given
Protocol: as §4

[5] = RAW264.7, RAW 264.7, LPS 1 μg/ml, 24 hours

## CCCC[C@@H]1OC(=O)c2ccccc21 [3-Butylphthalide, 3S-Butylphthalide]
PGE2 production; [5]
  IC50: 3 µM

## CCC/C=C1\OC(=O)C2=C1CCC=C2 [Ligustilide]
[1]; TNF-α + 25 μM ligustilide
  % reduction of adherence: 39%
  Number of adherent cells: 61 ± 25
[1]; TNF-α + 50 μM ligustilide
  % reduction of adherence: 73%
  Number of adherent cells: 27 ± 21
[2]
  IC50: 12.2 ± 3.1 µM
kaolin-induced arthritis; 1.5 hours after dosing
  Gait score: 0.3
  % improvement of gait score: 25%
kaolin-induced arthritis; 2.5 hours after dosing
  Gait score: 0.4
  % improvement of gait score: 43%
kaolin-induced arthritis; 3.5 hours after dosing
  Gait score: 0.6
  % improvement of gait score: 50%
kaolin-induced arthritis; 4.5 hours after dosing
  Gait score: 0.9
  % improvement of gait score: 53%
kaolin-induced arthritis; 5.5 hours after dosing
  Gait score: 1.3
  % improvement of gait score: 38%
kaolin-induced arthritis; at 3.5, 4.5 and 5.5 hours after dosing
  Analgesic effect in comparison to the control group: significant analgesic effect
[3]; 1.5 h after carrageenan
  % Inhibition of paw edema volume vs vehicle-treated group: 29%
  Paw edema volume: 0.17 mL
[3]; 3 h after carrageenan
  % Inhibition of paw edema volume vs vehicle-treated group: 27%
  Paw edema volume: 0.32 mL
[3]; 4.5 h after carrageenan
  % Inhibition of paw edema volume vs vehicle-treated group: 11%
  Paw edema volume: 0.40 mL
PGE2 production; [5]
  IC50: 3.2 µM
COX-2
  Gene expression (in %) relative to LPS control, COX-2: 24.1%
IL-8
  Gene expression (in %) relative to LPS control, IL-8: 72.4%
TNF-α
  Gene expression (in %) relative to LPS control, TNF-α: 50.6%
MIP-3α
  Gene expression (in %) relative to LPS control, MIP-3α: 67.2%
IL-6
  Gene expression (in %) relative to LPS control, IL-6: 52.3%
IL-1α
  Gene expression (in %) relative to LPS control, IL-1α: 15.2%
MIP-2
  Gene expression (in %) relative to LPS control, MIP-2: 52.0%
[4]; TNF-α + 25 μM ligustilide
  % reduction of expression (ICAM-1 mRNA): 58%
  Relative ICAM-1 mRNA level: 25 ± 6 arbitrary units
[4]; TNF-α + 50 μM ligustilide
  % reduction of expression (ICAM-1 mRNA): 73%
  Relative ICAM-1 mRNA level: 16 ± 1 arbitrary units
MMP-9
  Gene expression (in %) relative to IL-1β activated chondrocytes, MMP-9: 33%
Collagen 2
  Gene expression (in %) relative to IL-1β activated chondrocytes, Collagen 2: 184%
MMP-13
  Gene expression (in %) relative to IL-1β activated chondrocytes, MMP-13: 50%
MMP-1
  Gene expression (in %) relative to IL-1β activated chondrocytes, MMP-1: 17%
Collagen 1
  Gene expression (in %) relative to IL-1β activated chondrocytes, Collagen 1: 115%
MMP-3
  Gene expression (in %) relative to IL-1β activated chondrocytes, MMP-3: 2%

## CCC/C=C1\OC(=O)c2ccccc21 [N-Butylidenephthalide, E + Z-3-Butylidenephthalide]
PGE2 production; RAW264.7, 24 h
  IC50: 3 µM
